Data reported in ChEMBL document CHEMBL1130727, “Benzothiopyran-4-one based reversible inhibitors of the human cytomegalovirus (HCMV) protease” (Bioorg Med Chem Lett, 1998).

Target: T1, Capsid scaffolding protein (Human cytomegalovirus (strain AD169) (HHV-5) (Human herpesvirus 5), UniProt P16753)
T1 sequence (P16753 whole entry): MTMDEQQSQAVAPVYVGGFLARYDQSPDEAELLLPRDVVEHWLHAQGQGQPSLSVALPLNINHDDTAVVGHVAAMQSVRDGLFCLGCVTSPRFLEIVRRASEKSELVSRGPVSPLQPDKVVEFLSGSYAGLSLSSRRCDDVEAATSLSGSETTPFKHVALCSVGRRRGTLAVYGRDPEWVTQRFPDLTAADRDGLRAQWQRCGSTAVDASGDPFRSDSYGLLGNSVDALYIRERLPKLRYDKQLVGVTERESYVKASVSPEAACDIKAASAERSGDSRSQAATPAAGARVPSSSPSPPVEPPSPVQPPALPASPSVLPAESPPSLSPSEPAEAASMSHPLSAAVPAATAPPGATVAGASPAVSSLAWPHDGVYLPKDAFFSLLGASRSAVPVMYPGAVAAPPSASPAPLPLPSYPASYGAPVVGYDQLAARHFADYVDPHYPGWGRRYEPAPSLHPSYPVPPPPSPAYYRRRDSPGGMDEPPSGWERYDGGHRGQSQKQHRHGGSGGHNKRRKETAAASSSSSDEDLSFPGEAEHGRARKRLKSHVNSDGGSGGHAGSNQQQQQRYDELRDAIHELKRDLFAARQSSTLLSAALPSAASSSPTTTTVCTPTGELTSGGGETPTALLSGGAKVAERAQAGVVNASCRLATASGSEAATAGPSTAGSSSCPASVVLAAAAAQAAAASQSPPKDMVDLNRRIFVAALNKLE
Test: Inhibitory activity against human cytomegalovirus (HCMV) protease was evaluated
Design: species or system Human betaherpesvirus 5

Compound	IC50
CCOC(=O)c1ccc2c(c1)C(=O)C=C(c1ccc([N+](=O)[O-])cc1)S2(=O)=O	180 nM
O=C1C=C(c2ccc([N+](=O)[O-])cc2)S(=O)(=O)c2ccccc21	60 nM
CS(=O)(=O)c1ccc(C2=CC(=O)c3ccccc3S2(=O)=O)cc1	100 nM
O=C1C=C(c2ccccc2)S(=O)(=O)c2ccccc21	1500 nM
O=c1cc(-c2cccnc2)sc2ccccc12	> 34000 nM
CC(C)c1cccc2c1S(=O)(=O)C(c1ccc([N+](=O)[O-])cc1)=CC2=O	180 nM
O=c1cc(-c2ccccc2)[s+]([O-])c2ccccc12 (stereo not given)	10000 nM
Cc1cccc2c1C(=O)C=C(c1ccc([N+](=O)[O-])cc1)S2(=O)=O	100 nM
CC(C)(C)C1=CC(=O)c2ccccc2S1(=O)=O	> 34000 nM
O=C1C=C(c2ccsc2)S(=O)(=O)c2ccccc21	> 34000 nM
O=C1C=C(c2ccncc2)S(=O)(=O)c2ccccc21	100 nM
O=C1C=C(c2ccc(-c3ccccc3)cc2)S(=O)(=O)c2ccccc21	60 nM
O=C1C=C(c2cccnc2)S(=O)(=O)c2ccccc21	200 nM
Cc1cccc2c1S(=O)(=O)C(c1ccc([N+](=O)[O-])cc1)=CC2=O	110 nM
O=C1C=C(c2cccs2)S(=O)(=O)c2ccccc21	460 nM
O=C1C=C(c2ccc[n+]([O-])c2)S(=O)(=O)c2ccccc21	600 nM
O=C1C=C(c2cc[n+]([O-])cc2)S(=O)(=O)c2ccccc21	600 nM
CS(=O)(=O)c1ccc(-c2cc(=O)c3ccccc3s2)cc1	> 34000 nM
CCCCCCCC1=CC(=O)c2ccccc2S1(=O)=O	1400 nM
O=c1cc(-c2ccccc2)sc2ccccc12	> 34000 nM
